Tests used:
[1] = system: primary human neurons; experiment: TUNEL apoptosis of neurons challenged by (fibrillar Aβ+IL-1β)-activated astrocytes, astrocyte-neuron trans-well; type: cell-based; conditions: neurons pretreated 40 h with 1 μM oligonucleotide; 6 h with (fibrillar Aβ+IL-1β)-activated astrocytes
Procedure: Primary human astrocytes were grown to confluency on inserts. After 24 h of stimulation by the combination of Aβ (1 μM) and IL-Iβ (10 ng/ml), inserts were washed thrice with HBSS and then placed onto the wells containing primary human neurons. Therefore, in this trans-well model, although neurons and astrocytes face each other, they are separable and the effect of soluble factors released from activated astrocytes on neurons can be studied allowing analysis of neuronal and glial populations separately.
Fragmented DNA was detected in situ by the terminal deoxynucleotidyltransferase-mediated binding of 3′-OH ends of DNA fragments generated in response to fibrillar Aβ1-42, using a commercially available kit (TdT FragEL™) from Calbiochem. […]
Primary human neurons were incubated with antisense (ASO) and scrambled oligonucleotides (ScO) against N-SMase (A) and A-SMase (FIG. 2B). After 48 h, neurons were analyzed for protein expression of N-SMase and A-SMase. […] After 6 h of treatment with activated astrocytes, apoptotic events in neurons were detected by TUNEL. In FIG. 2D, TUNEL-positive cells were counted manually in four different images of each of three coverslips by three individuals blinded to the experiment. […] Values obtained from the control group served as 100%, and data obtained in other groups were calculated as percent of control accordingly. […]

[2] = system: A-SMase; experiment: Western blot of A-SMase protein after antisense knockdown in primary human neurons; type: cell-based; conditions: 48 h with oligonucleotide
Procedure: Because these ASOs have become a very critical part of our study, the efficacy of N-SMase and A-SMase ASOs in inhibiting the protein expression of N-SMase and A-SMase was checked by western blot. […] Next, the effect of antisense knockdown of neuronal N-SMase and/or A-SMase on activated glia-induced neuronal apoptosis by TUNEL was investigated. […] As evidenced by a decrease In MTT metabolism, activated astroglia reduced neuronal viability (FIG. 2E).
Primary human neurons were incubated with antisense (ASO) and scrambled oligonucleotides (ScO) against N-SMase (A) and A-SMase (FIG. 2B). After 48 h, neurons were analyzed for protein expression of N-SMase and A-SMase. In FIG. 2C, primary human astrocytes seeded in inserts were stimulated by the combination of Aβ and IL-1β as described above. […] After 6 h of treatment with activated astrocytes, apoptotic events in neurons were detected by TUNEL. In FIG. 2D, TUNEL-positive cells were counted manually in four different images of each of three coverslips by three individuals blinded to the experiment. In FIG. 2E, after 18 h of stimulation, cell viability was examined by the metabolism of MTT and the release of LDH. […] Cell viability was checked by MTT (FIG. 2F) and LDH (FIG. 2G). Values obtained from the control group served as 100%, and data obtained in other groups were calculated as percent of control accordingly. […]

[3] = system: primary human astrocytes; experiment: GFAP and iNOS double-labeling of primary human astrocytes stimulated with Aβ peptides; type: cell-based; conditions: peptide stimulation for 24 h
Procedure: In FIG. 5A, primary astrocytes were stimulated with fibrillar Aβ1-42, oligomeric Aβ1-42 and reverse peptide Aβ42-1 for 24 h followed by double-labeling of GFAP and iNOS. In FIG. 5B, primary human astrocytes seeded in inserts were stimulated with a combination of I μM of oligomeric Aβ1-42 and 10 ng/ml of IL-Iβ in serum free media. […] After 6 h, neuronal apoptosis was monitored by TUNEL. In FIG. 5C, TUNEL-positive cells were counted manually in four different images of each of three coverslips by three individuals blinded to the experiment. Values obtained from the control group (1) served as 100%, and data obtained from other three groups i.e. the oligomeric Aβ-activated astrocytes (OAA) group (2), the ASO-OAA group (3), and the ScO-OAA group (4) was calculated as percent of control accordingly. Results are mean+S.D. of three different experiments. ^ap<0.001 vs control; ^bp<0.001 vs OAA.

[4] = system: primary human astroglia; experiment: NO synthesis (nitrite, Griess reagent) in primary human astroglia; type: cell-based; conditions: primary human astroglia, level comparable to IL-1β
Procedure: Synthesis of NO was determined by assay of culture supernatants for nitrite, a stable reaction product of NO with molecular oxygen, using Griess reagent as described.
After 24 h of stimulation, the concentration of nitrite was measured in supernatants (FIG. 4A) by Griess reagent. […] Cells were treated with ASO/ScO for 40 h followed by stimulation with the combination of fibrillar Aβ and IL-Iβ as above. After 6 h, the expression of iNOS mRNA was analyzed by both semi-quantitative RT-PCR (C) and quantitative real-time PCR (FIG. 4D). The expression of TNF-a, IL-6 and IL-Iβ mRNAs were analyzed by semi-quantitative RT-PCR (FIG. 4E). Results are mean±SD of three different experiments. ^ap<0.001 vs control; ^bp<0.001 vs (Aβ+IL-Iβ).

[5] = system: iNOS, GFAP and CD11b; experiment: Immunofluorescence of iNOS, GFAP and CD11b in the cortex of Aβ-microinjected mice; type: in vivo, C57/BL6 mice; conditions: cortex, 6 h (and 24 h) of microinjection
Procedure: […], mice were perfused with 4% paraformaldehyde and their brains were processed for immunohistochemical studies. For double labeling of GFAP with iNOS, sections (6 μm) were incubated with polyclonal anti-GFAP (GFAP: 1000 dilution; Calbiochem) and anti-iNOS (iNOS: 1000 dilution; Calbiochem) for 24 h at 4° C. After three washes in PBST (15 min each), slides were further incubated with Cy5 and Cy2 (Jackson ImmunoResearch Laboratories, Inc.) secondary antibodies for 2 h at room temperature. For negative controls, a set of tissue sections was incubated under similar conditions without the primary antibodies. The samples were mounted and observed under a Bio-Rad MRC1024ES confocal laser scanning microscope.
After 6 h of Aβ microinjection, mice were perfused and double immunofluorescence for GFAP (green) and iNOS (red) (FIG. 8A) and CD 11b (green) and iNOS (red) (FIG. 8B) was performed.

[6] = system: neurons (NeuN-positive cells); experiment: TUNEL/NeuN neuronal apoptosis in vivo in the cortex of Aβ-microinjected mice
[7] = system: A-SMase; experiment: A-SMase activity in vivo in the cortex after microinjection; parameters: species or system C57/BL6 mice
Procedure: (§1) Activities of SMase(s) were assayed as described by. Briefly, after treatment, the cells were washed with PBS, harvested in PBS, divided into two halves, and centrifuged. The fraction for N-SMase was resuspended in buffer A (100 mM Tris-HCl, pH 7.4, 0.1% Triton X-100, 1 mM EDTA, and protease inhibitors), and the cell suspension was sonicated and centrifuged at 500×g at 4° C. for 5 min. The supernatant was used as the enzyme source for N-SMase. The reaction mixture contained enzyme preparation in buffer A containing 5 nmol of [^14C] sphingomyelin, 5 nmol of phosphatidylserine, 5 mM dithiothreitol, and 5 mM MgC¾ in a final volume of 100 μl. Similarly, the fraction for A-SMase was resuspended in buffer B (100 mM sodium acetate, pH 5.0, 0.1% Triton X-100, and protease inhibitors). The cell suspension was sonicated and centrifuged. The supernatant was used as the source of A-SMase. The activity of A-SMase was measured in a 100-μl reaction mixture consisting of the enzyme preparation in buffer B and 5 nmol of [^14C] sphingomyelin. The enzyme reaction was initiated by the addition of 50 μl of substrate and stopped by the addition of 1.5 ml of chloroform:methanol (2:1, v/v) and 0.2 ml of water. After vortexing and phase separation, the aqueous phase was removed for counting.
(§2) Control mice received saline injection. At indicated time points, cortex was dissected out and divided into two halves—one half for measuring activities of N-SMase (FIG. 7B) and A-SMase (FIG. 7C) and the other for assaying ceramide (FIG. 7D). Control (saline—6 h) group served as 100%, and data from other groups were expressed as percentage of control. Results are mean+SD of five different mice (n=5). ^ap<0.05 vs saline—6 h.

[8] = system: ceramide; experiment: Ceramide level in vivo in the cortex (DAG kinase assay); parameters: species or system C57/BL6 mice
Procedure: After treatment, lipids were extracted from cells as described previously. Ceramide content was quantified using diacylglycerol (DAG) kinase and [γ-^32P] ATP as described earlier. Briefly, dried lipids were solubilized in 20 μl of an octyl β-D-glucoside/cardiolipin solution (7.5% octyl β-D-glucoside, 5 mM cardiolipin in 1 mM diethylenetriaminepentaacetic acid) by sonication in a sonicatorbath. The reaction was then carried out in a final volume of 100 μl containing the 20-μl sample solution, 50 mM imidazole HQ, pH 6.6, 50 mM NaCl, 12.5 mM MgCl2, 1 mM EGTA, 2 mM dithiothreitol, 6.6 μg of DAG kinase, and 1 mM [γ-^32P] ATP (specific activity of 1-5×10^5 cpm/nmol) for 30 min at room temperature. The labeled ceramide-1-phosphate was resolved with a solvent system consisting of methyl acetate:n-propyl alcohol:chloroform:methanol:0.25% KQ in water:acetic acid (100:100:100:40:36:2). […] Quantification of ceramide-1-phosphate was carried out by autoradiography and densitometry scanning using a Fluor Chem 8800 imaging system (Alpha Innotech Corporation). Values are expressed either as arbitrary units (absorbance) or as percent of control, considering control as 100%. […]
Control mice received saline injection. […] Control (saline—6 h) group served as 100%, and data from other groups were expressed as percentage of control. […]

[9] = system: N-SMase; experiment: N-SMase activity in vivo in the cortex after microinjection; parameters: species or system C57/BL6 mice
Procedure: as §1, §2

Substance | protection of neurons from activated astrocyte-induced apoptosis (TUNEL) [1] | level of A-SMase protein [2] | astroglial iNOS protein and GFAP [3] | production of NO by the stimulus alone [4] | glial expression of iNOS (GFAP-positive astrocytes, CD11b-positive microglia) and GFAP after Aβ microinjection [5] | glial expression of iNOS (GFAP-positive astrocytes, CD11b-positive microglia) and GFAP after Aβ microinjection ([5]; listed as Aβ) | apoptotic death of neurons in vivo in the cortex after Aβ microinjection ([6]; 24 h after microinjection) | apoptosis in neurons (NeuN-positive cells) after Aβ microinjection ([6]; within 6 h of microinjection) | activity of A-SMase in the cortex ([7]; 1 μg peptide microinjected, same setting as N-SMase) | increase in the activity of A-SMase after Aβ microinjection ([7]; antisense experiment, Aβ alone) | increase in the ceramide level in the cortex ([8]; after 6 h) | increase in the ceramide level in the cortex ([8]; after 12 h) | activation of N-SMase in the cortex compared to saline microinjection ([9]; 1 μg peptide, over the time course) | increase in the activity of N-SMase in the cortex ([9]; 6 h of microinjection, 1 μg peptide) | activity of N-SMase in the cortex, in words ([9]; 12 h of microinjection) | increase in the activity of N-SMase in the cortex compared to saline ([9]; 12 h of microinjection, 1 μg peptide) | activity of N-SMase in the cortex, in words ([9]; 24 h of microinjection) | increase in the activity of N-SMase in vivo in the cortex compared to saline ([9]; antisense experiment, Aβ alone)
5′- GACATCTCGGAGCCGGGGCA -3′ (DNA, all phosphorothioate, methylation of C not given here) [ASO against A-SMase, ID; NO.: 14] | failed to rescue neurons | suppressed |  |  |  |  |  |  |  |  |  |  |  |  |  |  |  | 
fibrillar Aβ1-42: human Aβ peptide (1-42), Bachem, incubated at 50 μM at 37° C. for 5 days |  |  | induced the expression of iNOS protein and increased the level of GFAP | capable of inducing | induced | marked increase | markedly induced | unable to induce any apoptosis | unable to increase | about 35% | about 3 fold | about 4 fold | marked increase | More than 3 fold | increased further | more than 300% | decreased | more than 4 fold

— patent US9006205B2, “Antisense oligonucleotides against neutral sphingomyelinase and neutral sphingomyelinase inhibitor GW4869 for degenerative neurological disorders” (Rush University Medical Center, priority 2011, dated 2015)
